Results: PubChem BioAssay (NCI)
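Grown in 96-well plates, cells were treated for 48 hours with each compound at five concentrations. Insufficient inhibition: endpoint recorded as highest concentration tested. The concentration for full growth arrest is given as TGI.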

Columns and labels:
Test in all cases: NCI anticancer screen, dose series, 48 h
LOX IMVI melanoma = system: LOX IMVI melanoma
A549 NSCLC = system: A549 NSCLC
UACC-257 melanoma = system: UACC-257 melanoma
SF-295 CNS = system: SF-295 CNS
M14 melanoma = system: M14 melanoma
MDA-MB-231 breast = system: MDA-MB-231 breast
BT-549 breast = system: BT-549 breast
OVCAR-8 ovarian = system: OVCAR-8 ovarian
OVCAR-3 ovarian = system: OVCAR-3 ovarian
ACHN renal = system: ACHN renal
CAKI-1 renal = system: CAKI-1 renal
SNB-75 CNS = system: SNB-75 CNS
DU-145 prostate = system: DU-145 prostate
MALME-3M melanoma = system: MALME-3M melanoma
OVCAR-4 ovarian = system: OVCAR-4 ovarian
MDA-MB-435 = system: MDA-MB-435
NCI-H460 lung = system: NCI-H460 lung
UO-31 renal = system: UO-31 renal
EKVX NSCLC = system: EKVX NSCLC
HOP-62 NSCLC = system: HOP-62 NSCLC
TK-10 renal = system: TK-10 renal
SK-MEL-2 melanoma = system: SK-MEL-2 melanoma
NCI-H522 lung = system: NCI-H522 lung
NCI-H23 lung = system: NCI-H23 lung
SK-OV-3 ovarian = system: SK-OV-3 ovarian
SNB-19 CNS = system: SNB-19 CNS
MCF7 breast = system: MCF7 breast
CCRF-CEM leukemia = system: CCRF-CEM leukemia
RPMI-8226 leukemia = system: RPMI-8226 leukemia
HS 578T breast = system: HS 578T breast
NCI-H226 lung = system: NCI-H226 lung
HCT-116 colon = system: HCT-116 colon
SK-MEL-28 melanoma = system: SK-MEL-28 melanoma
A498 renal = system: A498 renal
COLO 205 colon = system: COLO 205 colon
SK-MEL-5 melanoma = system: SK-MEL-5 melanoma
HOP-92 NSCLC = system: HOP-92 NSCLC
PC-3 prostate = system: PC-3 prostate
786-0 renal = system: 786-0 renal
IGROV1 ovarian = system: IGROV1 ovarian
SW-620 colon = system: SW-620 colon
SF-539 CNS = system: SF-539 CNS
UACC-62 melanoma = system: UACC-62 melanoma
KM12 colon = system: KM12 colon
SF-268 CNS = system: SF-268 CNS
OVCAR-5 ovarian = system: OVCAR-5 ovarian
SR leukemia = system: SR leukemia
RXF 393 renal = system: RXF 393 renal
U251 CNS = system: U251 CNS
HCT-15 colon = system: HCT-15 colon
K-562 leukemia = system: K-562 leukemia
NCI/ADR-RES ovarian = system: NCI/ADR-RES ovarian
HCC-2998 colon = system: HCC-2998 colon
MDA-N = system: MDA-N

Compound: CC1=CC(=O)[C@@H](O)[C@]2(C)[C@H]3[C@@]4(O)OC[C@]35[C@H]([C@@H](C)[C@H]4O)[C@@H](O)C(=O)O[C@@H]5C[C@@H]12
- TGI (LOX IMVI melanoma): 620 nM
- TGI (A549 NSCLC): 15500 nM
- TGI (UACC-257 melanoma): 1770 nM
- TGI (SF-295 CNS): 3700 nM
- TGI (M14 melanoma): 1040 nM
- TGI (MDA-MB-231 breast): 1440 nM
- TGI (BT-549 breast): 5170 nM
- TGI (OVCAR-8 ovarian): 5820 nM
- TGI (OVCAR-3 ovarian): 2110 nM
- TGI (ACHN renal): 5400 nM
- TGI (CAKI-1 renal): 5300 nM
- TGI (SNB-75 CNS): 759 nM
- TGI (DU-145 prostate): 1690 nM
- TGI (MALME-3M melanoma): 445 nM
- TGI (OVCAR-4 ovarian): 6660 nM
- TGI (MDA-MB-435): 1730 nM
- TGI (NCI-H460 lung): 4850 nM
- TGI (UO-31 renal): 6710 nM
- TGI (EKVX NSCLC): 6310 nM
- TGI (HOP-62 NSCLC): 1080 nM
- TGI (TK-10 renal): 7760 nM
- TGI (SK-MEL-2 melanoma): 1160 nM
- TGI (NCI-H522 lung): 700 nM
- TGI (NCI-H23 lung): 1700 nM
- TGI (SK-OV-3 ovarian): > 20500 nM
- TGI (SNB-19 CNS): 3690 nM
- TGI (MCF7 breast): 546 nM
- TGI (CCRF-CEM leukemia): 1450 nM
- TGI (RPMI-8226 leukemia): > 100000 nM
- TGI (HS 578T breast): 1190 nM
- TGI (NCI-H226 lung): 694 nM
- TGI (HCT-116 colon): 288 nM
- TGI (SK-MEL-28 melanoma): 691 nM
- TGI (A498 renal): 4450 nM
- TGI (COLO 205 colon): 2450 nM
- TGI (SK-MEL-5 melanoma): 369 nM
- TGI (HOP-92 NSCLC): 2510 nM
- TGI (PC-3 prostate): 1670 nM
- TGI (786-0 renal): 2130 nM
- TGI (IGROV1 ovarian): 3420 nM
- TGI (SW-620 colon): 6780 nM
- TGI (SF-539 CNS): 261 nM
- TGI (UACC-62 melanoma): 6290 nM
- TGI (KM12 colon): 1720 nM
- TGI (SF-268 CNS): 778 nM
- TGI (OVCAR-5 ovarian): 5400 nM
- TGI (SR leukemia): > 100000 nM
- TGI (RXF 393 renal): 4460 nM
- TGI (U251 CNS): 379 nM
- TGI (HCT-15 colon): 2480 nM
- TGI (K-562 leukemia): > 100000 nM
- TGI (NCI/ADR-RES ovarian): 22600 nM
- TGI (HCC-2998 colon): 2510 nM
- TGI (MDA-N): 869 nM
